The values below come from paper PMC10663516 (Scientific Reports, 2023).

The conditions of data set [1]: cited from earlier work.
Another data set concerns DLBCL. The following applies: cited from earlier work.
The next data set deals with ST949B/ABC. Briefly: DLBCL PDX model. In kind it is in vivo, mouse. The settings on record: 9 days, QD PO, TL-895 and ibrutinib 25 mg/kg, acalabrutinib 30 mg/kg. How it is done: (§1) All three compounds were formulated in a solution of 20% kleptose (hydroxypropyl β-cyclodextrin) in 50 mM citrate and administered QD PO during the treatment periods given for each model.
For mean values > 0: %ΔT/ΔC=endtumorvolumetreatment-starttumorvolumetreatment/endtumorvolumecontrol-starttumorvolumecontrol×100
For mean values ≤ 0 (i.e. regression): %ΔT/ΔC=endtumorvolumetreatment-starttumorvolumetreatment/starttumorvolumecontrol×100
The research use of patient material in PDX models at Crown Bioscience, XenoSTART and EPO-GmbH was approved by the local Institutional Ethical Review Boards and the patients provided written informed consent. Molecular analysis was performed on samples from each model using the EdgeSeq DLBCL Cell of Origin Assay (HTG Molecular Diagnostics, Tucson, AZ, USA) to confirm ABC-GCB DLBCL subtype.
Stock mice inoculated with human DLBCL cancer tissues were euthanized by progressive hypoxemia with CO2 and tumors were harvested. Tumor fragments were used at three different contract research organizations for xenotransplantation into different mouse strains for the following models: (1) 6-week-old female nude (NMRI:nu/nu) or CB17-SCID mice (Javier Labs, France): Ly12638, Ly11212, and Ly13005 (Experimental Pharmacology and Oncology Berlin-Buch GmbH [EPO-GmbH], Germany); (2) 6–8-week-old female BALB/c nude or NOD SCID mice (Beijing HFK Bioscience Co., Ltd. Beijing, China): LY0257, LY2214, LY3604, LY2298, LY2264, LY2318, and LY2345 (Crown Bioscience Inc, Taicang, China); and (3) 6–12-week-old female CB-17 SCID mice (CB17/Icr-Prkdc^scid/IcrIcoCrl Charles River Laboratories, Wilmington, MA, USA): ST118B, ST949B, ST359, ST949, ST2761B, ST2963, ST1361, ST2078, ST1735B, ST2902, and ST3497 (XenoSTART, San Antonio, TX, USA).
When the average tumor volume was within a pre-determined range (100–300 mm^3), mice were assigned to treatment groups to balance the mean starting tumor volumes (n = 5 for all models except LY13005, which was n = 3). […] Tumor volumes were recorded 2–3 times per week. Mean %∆T/∆C was calculated at the end of treatment as described above for MCL models.
(§2) Tumor volume was used as the measure of efficacy for statistical analyses of in vivo xenograft studies. Tumor volume data from individual studies were log-transformed and statistically analyzed using repeated measures analysis of covariance (RM-ANCOVA) to determine significant treatment effects, followed by post hoc Tukey’s test for multiple pairwise comparisons (all α = 0.05) using R software. Day 0 data were used only as covariates in the analyses because tumor measurements on that day were recorded before the first treatments were administered.

The next data set concerns Daudi cells. Briefly: Rituximab-induced ADCC, NK cell-driven lysis (Calcein-AM release). In kind it is cell-based, human. The settings on record: 3 µg/mL rituximab, primary NK cells, 4 h; TL-895 0.1–10 µM, ibrutinib and acalabrutinib 0.3–30 µM. The text has this: ADCC analysis was based on quantitation of Calcein-AM release by […] detection on a FLUOstar® Omega (BMG LABTECH).

The subject of the next data set is primary CLL blasts. Briefly: Growth inhibition of primary CLL blasts (Mosaic Spot Assay). In kind it is cell-based. The following applies: Homo sapiens, 96 h, 4 days. An excerpt: A cytotoxic dose of cisplatin acted as a positive control, with no drug treatment as a negative control.
The next data set relates to Granta519. Briefly: Cell line-derived xenograft model of MCL. In kind it is in vivo, mouse. The following applies: SCID mice, 25 mg/kg QD PO, 14 days. The protocol:
as §1
(§3) Maver-1, Granta519, and Mino mouse MCL studies were performed at Shanghai ChemPartner Co., Ltd, Shanghai, China. Five-to-six-week old female severe combined immune deficiency (SCID) mice (Vital River Lab Animal Technology Co., Ltd, Beijing, China) were inoculated with Maver-1, Granta519, or Mino cells (all obtained from ATCC) by subcutaneous (s.c.) injection (0.2 mL containing 5 × 10^7 cells/mL in a 1:1 suspension of medium:Matrigel).
(§4) […]. Tumor volumes were recorded three times per week. Tumor growth inhibition was expressed as the mean percentage treatment (T)/control (C) ratio [%∆T/∆C] and was calculated at the end of treatment.
as §2

The subject of a further data set is Maver-1. Briefly: Cell line-derived xenograft model of MCL. In kind it is in vivo, mouse. The settings on record: Maver-1 xenograft, SCID mice, 25 mg/kg QD PO, 14 days. The protocol: as §1, §3, §4, §2
For a further data set, the system named is Mino. Kind of data set: Cell line-derived xenograft model of MCL. The settings on record: SCID mice, 25 mg/kg QD PO, 27 days.
The test system of the next data set is Jeko-1. Kind of data set: Cell line-derived xenograft model of MCL. In kind it is in vivo, mouse. The following applies: Jeko-1 xenograft, nude mice, 25 mg/kg QD PO, 20 days. The protocol:
All three compounds were formulated in a solution of 20% kleptose (hydroxypropyl β-cyclodextrin) in 50 mM citrate and administered QD PO during the treatment periods given for each model. […] Studies in the Jeko-1 mouse MCL model were performed at EMD Serono Research and Development Institute, Billerica, MA, USA. Six-to-eight-week old female nude mice (Crl:NU-Foxn1nu; Charles River Laboratories, Wilmington) were inoculated with Jeko-1 cells (obtained from ATCC) by s.c. injection (10 × 10^6 cells in 0.2 mL phosphate buffered saline with Matrigel). […] Tumor volumes were recorded twice weekly. Mean %∆T/∆C was calculated at the end of treatment as outlined above. Tumor volume was used as the measure of efficacy for statistical analyses of in vivo xenograft studies. Tumor volume data from individual studies were log-transformed and statistically analyzed using repeated measures analysis of covariance (RM-ANCOVA) to determine significant treatment effects, followed by post hoc Tukey’s test for multiple pairwise comparisons (all α = 0.05) using R software. Day 0 data were used only as covariates in the analyses because tumor measurements on that day were recorded before the first treatments were administered.

Where two headings read alike, the source gives them in different places.

Regarding `CC#CC(=O)N1CCC[C@H]1c1nc(-c2ccc(C(=O)Nc3ccccn3)cc2)c2c(N)nccn12` [Acalabrutinib], the Exposure in data set [1] (MCL, acalabrutinib oral 100 mg BID) was 1111 ng·h/mL. In the data set with DLBCL (patients with either ABC- or GCB-DLBCL), the “Combined overall response rate (ORR)” value is reported as 24%. Further, in the data set with ST949B/ABC, the “%ΔT/ΔC” value came to 103%. The “Inhibition of the ADCC mechanism of rituximab” value (“Inhibition … of rituximab” below) in the data set on Daudi cells is “neither TL-895 (0.1–10 µM) nor acalabrutinib (0.3–30 µM) inhibited the ADCC mechanism of rituximab at the lower, more clinically relevant, concentrations”. Moreover, in the data set on primary CLL blasts, at 0.008 µM the inhibition was 34%; 0.04 µM produced 40% inhibition; the inhibition (in general, the drop in the measured response relative to a control, in per cent) at 0.2 µM was 47%; the inhibition at 1 µM turned out to be 56%. In the data set on primary CLL blasts, the inhibition at 5 µM came out at 64%; the inhibition at 25 µM was determined as 80%; the IC50 – broadly, the concentration needed to halve the response being measured – is around 200 nM.

On to `C=CC(=O)N1CCC[C@@H](n2nc(-c3ccc(Oc4ccccc4)cc3)c3c(N)ncnc32)C1` [Ibrutinib], for which, in data set [1] (patients with MCL, ibrutinib 560 mg QD), the “Area under the curve (AUC)” value is 956 ng·h/mL. Further, the ORR is 90% with DLBCL (combined with R-ICE, patients with GCB-DLBCL) and 31% in the data set with DLBCL (patients with wild type CD79B ABC-DLBCL). For the same molecule, the Reported response rate in the data set on DLBCL (patients with ABC-DLBCL) is reported as 37%; in the data set with DLBCL (patients with GCB-DLBLC), 5%. The “Tumor growth vs vehicle” value in the data set on Granta519 is “Neither TL-895 nor ibrutinib had any significant effects on tumor growth”; with Maver-1, “Neither TL-895 nor ibrutinib had any significant effects on tumor growth”; in the data set with Mino it was “Significant treatment effects were observed for TL-895 and ibrutinib versus vehicle”; with Jeko-1, “Neither TL-895 nor ibrutinib had any significant effects on tumor growth”. The “Inhibition … of rituximab” value with Daudi cells is given as “ADCC was inhibited by ibrutinib (0.3–30 µM) in a concentration-dependent manner”.

Consider `C=CC(=O)N1CCC(F)(CNc2ncnc(N)c2-c2ccc(Oc3ccccc3)cc2)CC1` [TL-895], for which the “Complete responses in patients with DLBCL” value with DLBCL (preliminary evidence) was 1. The “%ΔT/ΔC” value in the data set with ST949B/ABC is 39%. For the same molecule, the “Tumor growth vs vehicle” value in the data set with Granta519 is recorded as “Neither TL-895 nor ibrutinib had any significant effects on tumor growth”. The “Tumor growth vs vehicle” value in the data set with Maver-1 is recorded as “Neither TL-895 nor ibrutinib had any significant effects on tumor growth”. Moreover, the “Tumor growth vs vehicle” value in the data set on Mino was “significantly inhibited tumor growth”. The “Inhibition … of rituximab” value with Daudi cells is on record as “neither TL-895 (0.1–10 µM) nor acalabrutinib (0.3–30 µM) inhibited the ADCC mechanism of rituximab at the lower, more clinically relevant, concentrations”. For the same molecule, the “Tumor growth vs vehicle” value with Jeko-1 was “Neither TL-895 nor ibrutinib had any significant effects on tumor growth”. Besides, in the data set on primary CLL blasts, the inhibition at 0.008 µM is 43%, 0.04 µM produced 50% inhibition, the inhibition at 0.2 µM was determined as 53% and the inhibition at 1 µM is 61%. Further, in the data set on primary CLL blasts, testing at 5 µM gave an inhibition of 72%, the inhibition at 25 µM was found to be 90% and the IC50 was around 200 nM.
